Key:
Methylocystis strain SB2 [1] = assay: Nitrogen source utilization by strain SB2 with methane as carbon source; format: cell-based; conditions: methane as the carbon source
Experimental: Many nitrogen sources were tested with methane as the carbon source: nitrate (as potassium nitrate), ammonia (as ammonium chloride), L-alanine, L-serine, L-isoluecine, L-proline, L-methionine, L-glutamine, L-asparagine, L-lysine, L-glycine, L-histidine, and L-arginine. […] The presence of nifH was confirmed using PCR using specific primers for nifH (Auman, et al., 2001; Zehr & McReynolds, 1989).

Methylocystis strain SB2 [2] = assay: Growth of Methylocystis strain SB2 on carbon sources; format: cell-based; conditions: for growth on substrate as carbon source: substrates 0.05%, methanol 0.01-1% (v/v), acetate 0.01-0.5% (w/v), ethanol 0.05-1% (v/v); for OD600 reached (final / max OD600) / growth rate: NMS medium, 10 μM copper, 30° C.; for growth rate: exponential kinetics
Experimental: Methylocystis strain SB2 was incubated in 50 ml of NMS medium in 250 ml flask supplemented with 10 μM of copper as CuCl2. The flasks were incubated at 30° C. with shaking at 250 rpm. Cell growth was monitored by measuring OD600 using a Spectronic-20 (Milton Roy Company, USA).
Growth of strain SB2 on Alternative Carbon Sources: Growth on methanol (0.05% v/v) and methylamine, glucose, fructose, sucrose, galactose, xylose, arabinose, and maltose (all at a concentration of 0.05% w/v) was tested, as were the organic acids formate, pyruvate, succinate, malate, citrate and oxalate (all added as sodium salts at a concentration of 0.05% w/v).
At this pH, 99% of the added acetate exists as the dissociated form. It is believed that undissociated acetate is transferred across the cell membrane, thus the proton motive force is dissipated to transport acetate into the cell (Axe and Bailey, 1995), which inhibits microbial growth.

[3] = tested on: Methylosinus trichosporium OB3b expressing pMMO; conditions: 50 μM each of VC, t-DCE, and TCE; 110 hours of growth on methane; Lee et al., 2006; cited from earlier work
Methylocystis strain SB2 [4] = assay: Degradation of chlorinated hydrocarbons by Methylocystis strain SB2 grown on ethanol or methane; format: cell-based; conditions: individual chlorinated hydrocarbons
Experimental: The ability of Methylocystis strain SB2 to degrade chlorinated hydrocarbon, including trichloroethylene (TCE), trans-dichloroethylene (t-DCE), vinyl chloride (VC), 1,1,1-trichloroethane (1,1,1-TCA), dichloromethane (DCM), and chloroform (CF), was compared when Methylocystis strain SB2 was grown on ethanol relative to when it was grown with methane.

[5] = dimensionless, at 30° C.; cited from earlier work
[6] = Abiotic loss of chlorinated ethenes from serum vials with sterile NMS medium; format: physicochemical; conditions: 40 μM each in 5 ml sterile NMS medium; 216 hours
Experimental: Growth and degradation of chlorinated solvents. The growth of Methylocystis strain SB2 and degradation of the mixture of TCE, t-DCE, and VC were measured in three different conditions: methane, acetate, and acetate with acetylene (a selective inhibitor of both MMOs) (Prior and Dalton, 1985). The method used previously by Lee et al. (2006) and Yoon and Semrau (2008) was slightly modified for these assays. For all three growth conditions, Methylocystis strain SB2 was initially grown on methane to the mid-exponential phase (OD600 nm of 0.3-0.4). This cell suspension was flushed with compressed air as described above to remove residual methane and diluted to OD600<0.03 in 50 ml of fresh media in 250 ml Erlenmeyer flask. For growth on methane, methane was added to the headspace to an air:methane ratio of 1:1 and the cells were grown back to an OD600 of ca. 0.06. After the flask was flushed with compressed air as described earlier, five milliliter aliquots were transferred to serum vials specially fabricated to measure growth at OD600 over time as described earlier (Lee et al., 2006). Teflon-coated butyl-rubber stoppers (National Scientific Co., Duluth, Ga.) were used to seal the serum vials. After the serum vials were securely sealed, 5 ml of the air in headspace was replaced with 5 ml of methane to ensure sufficient methane for growth. For growth on acetate, 1 mM of sodium acetate (Im et al., 2010) instead of methane was added to the diluted cell suspension in 250-ml Erlenmeyer flasks. […] The growth of Methylocystis strain SB2 was monitored until the cell growth was no longer observed. The initial and final concentration of TCE, t-DCE, and VC were measured with HP5890 Series II gas chromatograph equipped with a 75 m DB-624 column with 0.53 mm internal diameter (J&W Scientific Co.). […] TCE and t-DCE were detected with an electron capture detector (ECD) with injector, oven, and detector temperatures set to 160, 120, and 250° C., respectively. VC was detected with a flame ionization detector (FID) with injector, oven, and detector temperatures set to 140, 120, and 250° C., respectively.

Methylocystis strain SB2 [7] = assay: Growth yield and carbon conversion efficiency, Methylocystis strain SB2; format: cell-based; conditions: NMS, 10 μM copper, standard error in parentheses
Experimental: For Table 1, the molar growth yield (g dry cell▪(mol substrate^−1)) and the efficiency of carbon conversion to cell material (g cell carbon▪(g substrate carbon)^−1) were determined in triplicate 5 ml of NMS medium supplemented with 10 μM of copper as CuCl2 using specially constructed 32.5 ml vials containing a CH4/air mixture (1:2 ratio in the headspace), or 0.10% (w/v) of sodium acetate as a sole carbon source. CH4 and acetate concentrations were measured using gas chromatography equipped with a FID (HP 5890 Series II) and ion chromatography (Dionex DX100, Sunnyvale, Calif.), respectively. Cell growth was monitored by measuring OD600 using a Spectronic-20 spectrometer (Milton Roy Company, USA). Turbidity was correlated to protein concentration using the Bio-Rad Protein Assay (Bio-Rad Laboratories, Richmond, Calif.) with bovine serum albumin (BSA) as the standard following manufacturer's instructions. To estimate the carbon content of biomass it was assumed that dry biomass was 50% protein, and C4H8O2N was the biomass elemental composition (Leak and Dalton, 1986).

[8] = tested on: Methylocella silvestris BL2; conditions: Dedysh, et al. (2005); cited from earlier work
Methylocystis strain SB2 [9] = assay: Growth of Methylocystis strain SB2 in the presence of chlorinated ethenes; format: cell-based; conditions: grown on methane in the absence of chlorinated ethenes
Experimental: Methylocystis strain SB2 was initially grown on methane (1:1 methane-to-air ratio) to the mid-exponential phase (OD600 of 0.3-0.4 as measured using a Spectronic 20 spectrometer (Milton Roy Company, USA)). […] The cultures were then diluted to an OD600 of 0.06 with fresh NMS medium. Five ml aliquots were added to serum vials specially fabricated to measure growth as OD600 over time and respective growth substrates were added. For addition of methane, 5 ml of headspace was replaced with >99.99% methane after sealing the vials for a final concentration of 15% v/v in the headspace. […] Growth was monitored by measuring absorbance at 600 nm (OD600).
For all three growth conditions, Methylocystis strain SB2 was initially grown on methane to the mid-exponential phase (OD600 nm of 0.3-0.4). This cell suspension was flushed with compressed air as described above to remove residual methane and diluted to OD600<0.03 in 50 ml of fresh media in 250 ml Erlenmeyer flask. For growth on methane, methane was added to the headspace to an air:methane ratio of 1:1 and the cells were grown back to an OD600 of ca. 0.06. […] The growth of Methylocystis strain SB2 was monitored until the cell growth was no longer observed.

Methylocystis strain H2s = conditions: growth on acetate; Belova et al., 2010; cited from earlier work
Methylocystis heyeri H2T = conditions: growth on acetate; Belova et al., 2010; cited from earlier work
[10] = tested on: Methylocystis echinoides IMET 10491T; conditions: growth on acetate; Belova et al., 2010; cited from earlier work
Methylocapsa aurea KYGT = conditions: growth on acetate; cited from earlier work
Methylocystis strain SB2 [11] = assay: Degradation of chlorinated ethenes by Methylocystis strain SB2 grown on methane or acetate; format: cell-based; conditions: SB2 grown on CH3COOH + C2H2 (acetylene); 40 μM each of TCE, t-DCE, and VC; 216 hours
Experimental: Saturated stock solutions were prepared for TCE and t-DCE as described by Chang and Alvarez-Cohen (1996). Hamilton 1700 series gas-tight syringes (Hamilton, Reno, Nev.) were used to take aliquots from the stock solutions. Gaseous compounds, i.e., methane and VC, were transferred to gas bags before use. Aliquots were taken with Precision Lok gas-tight syringes purchased from Precision Sampling Corp (Baton Rouge, La.). The amount of chlorinated solvents to be added was calculated considering dimensionless Henry's constants at 30° C. […]
The method used previously by Lee et al. (2006) and Yoon and Semrau (2008) was slightly modified for these assays. […] The growth of Methylocystis strain SB2 was monitored until the cell growth was no longer observed. The initial and final concentration of TCE, t-DCE, and VC were measured with HP5890 Series II gas chromatograph equipped with a 75 m DB-624 column with 0.53 mm internal diameter (J&W Scientific Co.). […] TCE and t-DCE were detected with an electron capture detector (ECD) with injector, oven, and detector temperatures set to 160, 120, and 250° C., respectively. VC was detected with a flame ionization detector (FID) with injector, oven, and detector temperatures set to 140, 120, and 250° C., respectively.

N [ammonium]
utilization as nitrogen source (Methylocystis strain SB2 [1]): able to utilize

CO [methanol]
growth on substrate as carbon source (Methylocystis strain SB2 [2]): no growth

Cl/C=C/Cl [t-DCE, trans-dichloroethylene]
% degraded [3]: 98%
degradation by strain SB2 grown on ethanol (Methylocystis strain SB2 [4]): degraded
degradation by strain SB2 grown on methane (Methylocystis strain SB2 [4]): degraded
Henry's constants [5]: 0.474
Abiotic loss, % (range of duplicate samples) [6]: 0 (0) %

C [methane]
OD600 reached (final / max OD600) (Methylocystis strain SB2 [2]): 0.83
growth rate (Methylocystis strain SB2 [2]): 0.052 ± 0.004 h⁻¹
Efficiency of carbon conversion (Methylocystis strain SB2 [7]): 12.3 (±0.5) %
Growth yield (Methylocystis strain SB2 [7]): 3.13 (±0.12) g cell dry weight ▪(mol substrate^−1
Efficiency of carbon conversion [8]: 13.2 (±0.698) %
Growth yield [8]: 3.59 (±0.104) g cell dry weight ▪(mol substrate^−1
specific growth rate (Methylocystis strain SB2 [9]): 0.057 h⁻¹

CC(=O)O [acetate]
OD600 reached (final / max OD600) (Methylocystis strain SB2 [2]): 0.26
growth on substrate as carbon source (Methylocystis strain SB2 [2]): grew
max OD410 (Methylocystis strain H2s): ~0.23
Efficiency of carbon conversion (Methylocystis strain SB2 [7]): 22.1 (±0.2) %
Growth yield (Methylocystis strain SB2 [7]): 12.0 (±0.13) g cell dry weight ▪(mol substrate^−1
max OD410 (Methylocystis heyeri H2T): 0.14
Efficiency of carbon conversion [8]: 40.1 (±2.43) %
Growth yield [8]: 20.5 (±1.24) g cell dry weight ▪(mol substrate^−1
max OD410 [10]: 0.09
max OD600 (Methylocapsa aurea KYGT): 0.3

O=C(O)[C@@H]1CCCN1 [L-proline]
utilization as nitrogen source (Methylocystis strain SB2 [1]): able to utilize

ClCCl [DCM, dichloromethane]
degradation by strain SB2 grown on ethanol (Methylocystis strain SB2 [4]): not
degradation by strain SB2 grown on methane (Methylocystis strain SB2 [4]): not
Henry's constants [5]: 0.125

CCO [ethanol]
OD600 reached (final / max OD600) (Methylocystis strain SB2 [2]): 0.45
growth rate (Methylocystis strain SB2 [2]): 0.022 ± 0.002 h⁻¹
growth on substrate as carbon source (Methylocystis strain SB2 [2]): grew

ClC(Cl)Cl [CF, chloroform]
degradation by strain SB2 grown on ethanol (Methylocystis strain SB2 [4]): not
degradation by strain SB2 grown on methane (Methylocystis strain SB2 [4]): degraded
Henry's constants [5]: 0.189

ClC=C(Cl)Cl [TCE, trichloroethylene]
% degraded [3]: 35%
degradation by strain SB2 grown on ethanol (Methylocystis strain SB2 [4]): degraded
degradation by strain SB2 grown on methane (Methylocystis strain SB2 [4]): degraded
Henry's constants [5]: 0.458
% Chlorinated ethene degraded (range of duplicate samples) (Methylocystis strain SB2 [11]): 3.3%
Abiotic loss, % (range of duplicate samples) [6]: 5.2%

CC(Cl)(Cl)Cl [1,1,1-TCA, 1,1,1-trichloroethane]
degradation by strain SB2 grown on ethanol (Methylocystis strain SB2 [4]): degraded
degradation by strain SB2 grown on methane (Methylocystis strain SB2 [4]): degraded
Henry's constants [5]: 0.804

NC(=O)CC[C@H](N)C(=O)O [L-glutamine]
utilization as nitrogen source (Methylocystis strain SB2 [1]): able to utilize

CC[C@H](C)[C@H](N)C(=O)O [L-isoleucine]
utilization as nitrogen source (Methylocystis strain SB2 [1]): able to utilize

C=CCl [VC, vinyl chloride]
% degraded [3]: 97%
degradation by strain SB2 grown on ethanol (Methylocystis strain SB2 [4]): degraded
degradation by strain SB2 grown on methane (Methylocystis strain SB2 [4]): degraded
Henry's constants [5]: 1.262
Abiotic loss, % (range of duplicate samples) [6]: 1.8%

O=[N+]([O-])O [nitrate]
utilization as nitrogen source (Methylocystis strain SB2 [1]): able to utilize

— patent publication US8629239B2, “Methylocystis strain SB2 materials and methods” (Iowa State University Research Foundation, Inc., priority 2010, dated 2014)
